In patent US9645154B2, “Method for detecting cancer cell” (ARKRAY, Inc., priority 2010, dated 2017):

How the values were obtained:
[1] = tested on: Blood cells; assay: Labeled sugar incorporation, fluorescence microscopy image analysis (false-positive/negative rate); assay type: cell-based, human
Text: Blood was collected from a human subject using a vacuum blood collection tube (with EDTA•2K). Blood cells were separated using HetaSep (STEMCELL Technologies) in accordance with manufacturer's instructions.
When performing the hemolyzing treatment, the blood cell fraction collected as described above was hemolyzed using ammonium chloride (STEMCELL Technologies) according to the manufacture's manuals.
The number of the cells was counted for each cell line using a hemacytometer in accordance with the conventional method, and then 10^5 to 10^6 cells per sample (cell suspension) was aliquoted. Each of the sample was centrifuged to remove the supernatant. Subsequently, 2-NBDG (Wako Pure Chemical Industries, Ltd.; at the final concentration given in Table 3 or 4) dissolved in Dulbecco's PBS (−) was added thereto, and the cells were suspended well. After the reaction, Dulbecco's PBS (−) was added to the mixture, and the resultant was centrifuged to remove the supernatant. The cells were resuspended with Dulbecco's PBS (−) and centrifuged, and the supernatant was removed again. The steps of resuspending cells with Dulbecco's PBS (−), centrifuging and removing the supernatant were then repeated 2 to 3 times, thereby washing the cells thoroughly. The cells were resuspended with Dulbecco's PBS (−), the concentration thereof was adjusted, and then added dropwise to a 384-well plate. The plate was centrifuged to spin down the cells. The image was captured with a fluorescence microscope (Nikon Corp.) using B-2A filter combination (Nikon Corp.). The B-2A set covers the following wavelengths. EX (excitation wavelength): 475±15 nm, DM: 505 nm or longer, BA (fluorescence wavelength) 520 nm or longer.
(§1) The acquired images were analyzed using an image analysis software NIS-ELEMENTS (trade name, Nikon Corp.) to evaluate the fluorescence intensity of the cell. […]

[2] = tested on: human prostate cancer cell line PC3; assay: Aminolevulinic acid (with FeCl2 and ascorbic acid at the same concentration) labeling, fluorescence microscopy image analysis (positive rate); assay type: cell-based
Text: In accordance with the conventional method, cultured human prostate cancer cell line PC3 (DS Pharma Biomedical Co., Ltd.) was harvested with trypsin (Invitrogen). The human gastric cancer cell line SNU-1 (ATCC), which is a suspension cell line, was directly harvested without any trypsin treatment. The cell suspension of the harvested cancer cells was centrifuged, and the supernatant was removed. The cells were resuspended with Dulbecco's PBS (+) (Nissui Pharmaceutical Co., Ltd.) and centrifuged, and the supernatant was removed again.
When performing the hemolyzing treatment, the collected blood cell fraction was hemolyzed using ammonium chloride (STEMCELL Technologies) at room temperature according to the manufacture's manuals.
The number of the cells was counted using a hemacytometer in accordance with the conventional method, and then 10^5 to 10^6 cells per sample (cell suspension) was aliquoted. The sample was centrifuged to remove the supernatant. Subsequently, aminolevulinic acid 5-AMINOLEVULINATE HYDROCHLORIDE (trade name, Cosmo Bio Co., Ltd., at the final concentration given in Table 7 or 8) dissolved in Dulbecco's PBS (+) and FeCl2 and ascorbic acid having the same concentration as that of aminolevulinic acid, respectively, were added thereto, and the cells were suspended well. The number of the cells was adjusted, and then the cells were added dropwise to a 384-well plate. The plate was centrifuged to spin down the cells. The image was captured with a fluorescence microscope (Nikon Corp.).
The wavelengths for the fluorescence filter set: EX (excitation wavelength): 402±7.5, DM: 430 or longer, BA (fluorescence wavelength): 625±15.
as §1

[3] = fresh blood, Mean luminance, hemolyzed, 10 mM, 5 min, 23° C.
[4] = fresh blood, Total luminance, hemolyzed, 10 mM, 5 min, 23° C.
[5] = hemolyzed, 10 mM, 5 min, 23° C.
[6] = hemolyzed, 10 mM, 5 min, 23° C., threshold value 280 (Colon adenocarcinoma)
[7] = hemolyzed, 10 mM, 5 min, 23° C., threshold value 330 (Breast adenocarcinoma)
[8] = hemolyzed, 10 mM, 5 min, 23° C., threshold value 370 (Alveolar epithelial cancer)
[9] = hemolyzed, 10 mM, 5 min, 23° C., threshold value 370 (Fibrosarcoma)
[10] = hemolyzed, 10 mM, 5 min, 23° C., threshold value 490 (Gastric cancer)
[11] = hemolyzed, 10 mM, 5 min, 23° C., threshold value 880 (Prostate cancer)
[12] = hemolyzed, 0.1 mM, 37° C., 30 min, threshold value 380
[13] = hemolyzed, 1 mM, 37° C., 30 min, threshold value 520
[14] = hemolyzed, 10 mM, 37° C., 30 min, threshold value 1150
[15] = hemolyzed, 4° C., 10 mM, 5 min, threshold value 640
[16] = hemolyzed, 23° C., 10 mM, 5 min, threshold value 640
[17] = hemolyzed, 37° C., 10 mM, 5 min, threshold value 750
[18] = hemolyzed, 5 min, 10 mM, 37° C., threshold value 570
[19] = hemolyzed, 30 min, 10 mM, 37° C., threshold value 880
[20] = hemolyzed, 60 min, 10 mM, 37° C., threshold value 750
[21] = not hemolyzed, 10 mM, 5 min, 23° C.
[22] = single, Glucose conc.: 1 mM, Temp.: 37° C., Time: 30 min, threshold value 280 (Colon adenocarcinoma)
[23] = single, Glucose conc.: 1 mM, Temp.: 37° C., Time: 30 min, threshold value 370 (Fibrosarcoma)
[24] = single, Glucose conc.: 1 mM, Temp.: 37° C., Time: 30 min, threshold value 490 (Gastric cancer)
[25] = without hemolyzing treatment, 0.1 mM, 37° C., 30 min, threshold value 280
[26] = without hemolyzing treatment, 1 mM, 37° C., 30 min, threshold value 330
[27] = without hemolyzing treatment, 10 mM, 37° C., 30 min, threshold value 450 (concentration series)
[28] = without hemolyzing treatment, 4° C., 10 mM, 5 min, threshold value 310
[29] = without hemolyzing treatment, 23° C., 10 mM, 5 min, threshold value 360
[30] = without hemolyzing treatment, 37° C., 10 mM, 5 min, threshold value 390
[31] = without hemolyzing treatment, 5 min, 10 mM, 37° C., threshold value 380
[32] = without hemolyzing treatment, 30 min, 10 mM, 37° C., threshold value 450 (time series)
[33] = without hemolyzing treatment, 60 min, 10 mM, 37° C., threshold value 500

O=[N+]([O-])c1ccc(N[C@H]2C(O)O[C@H](CO)[C@@H](O)[C@@H]2O)c2nonc12 (stereo partly drawn) [2-NBDG, 2-[N-(7-nitrobenz-2-oxa-1,3-diazol-4-yl)amino]-2-deoxy-D-glucose]
Negative rate (Blood cells) [1, 3]: 95.2%
Positive rate of cancer cells (Blood cell data) [1, 3]: 4.8%
Negative rate (Blood cells) [1, 4]: 91.0%
Positive rate of cancer cells (Blood cell data) [1, 4]: 9.0%
Negative rate (Blood cells (fresh blood)) [1, 5]: 95.2%
Positive rate (Blood cells (fresh blood)) [1, 5]: 4.8%
Negative rate (Blood cells (fresh blood)) [1, 6]: 96.6%
Positive rate (Blood cells (fresh blood)) [1, 6]: 3.4%
Negative rate (Blood cells (fresh blood)) [1, 7]: 94.2%
Positive rate (Blood cells (fresh blood)) [1, 7]: 5.8%
Negative rate (Blood cells (fresh blood)) [1, 8]: 98.3%
Positive rate (Blood cells (fresh blood)) [1, 8]: 1.7%
Negative rate (Blood cells (fresh blood)) [1, 9]: 95.2%
Positive rate (Blood cells (fresh blood)) [1, 9]: 4.8%
Negative rate (Blood cells (fresh blood)) [1, 10]: 100.0%
Positive rate (Blood cells (fresh blood)) [1, 10]: 0.0%
Negative rate (Blood cells (fresh blood)) [1, 11]: 100.0%
Positive rate (Blood cells (fresh blood)) [1, 11]: 0.0%
Negative rate (Blood cells) [1, 12]: 100.0%
Positive rate (Blood cells) [1, 12]: 0.0%
Negative rate (Blood cells) [1, 13]: 98.9%
Positive rate (Blood cells) [1, 13]: 1.1%
Negative rate (Blood cells) [1, 14]: 100.0%
Positive rate (Blood cells) [1, 14]: 0.0%
Negative rate (Blood cells) [1, 15]: 100.0%
Positive rate (Blood cells) [1, 15]: 0.0%
Negative rate (Blood cells) [1, 16]: 99.2%
Positive rate (Blood cells) [1, 16]: 0.8%
Negative rate (Blood cells) [1, 17]: 98.5%
Positive rate (Blood cells) [1, 17]: 1.5%
Negative rate (Blood cells) [1, 18]: 99.1%
Positive rate (Blood cells) [1, 18]: 0.9%
Negative rate (Blood cells) [1, 19]: 99.7%
Positive rate (Blood cells) [1, 19]: 0.3%
Negative rate (Blood cells) [1, 20]: 97.1%
Positive rate (Blood cells) [1, 20]: 2.9%
Negative rate (Blood cells (fresh blood)) [1, 21]: 97.9%
Positive rate (Blood cells (fresh blood)) [1, 21]: 2.1%
Negative rate (Blood cells (fresh blood)) [1, 22]: 96.6%
Positive rate (Blood cells (fresh blood)) [1, 22]: 3.4%
Negative rate (Blood cells (fresh blood)) [1, 23]: 95.2%
Positive rate (Blood cells (fresh blood)) [1, 23]: 4.8%
Negative rate (Blood cells (fresh blood)) [1, 24]: 100.0%
Positive rate (Blood cells (fresh blood)) [1, 24]: 0.0%
Negative rate (Blood cells) [1, 25]: 100.0%
Positive rate (Blood cells) [1, 25]: 0.0%
Negative rate (Blood cells) [1, 26]: 98.5%
Positive rate (Blood cells) [1, 26]: 1.5%
Negative rate (Blood cells) [1, 27]: 98.9%
Positive rate (Blood cells) [1, 27]: 1.1%
Negative rate (Blood cells) [1, 28]: 99.1%
Positive rate (Blood cells) [1, 28]: 0.9%
Negative rate (Blood cells) [1, 29]: 97.9%
Positive rate (Blood cells) [1, 29]: 2.1%
Negative rate (Blood cells) [1, 30]: 99.0%
Positive rate (Blood cells) [1, 30]: 1.0%
Negative rate (Blood cells) [1, 31]: 98.6%
Positive rate (Blood cells) [1, 31]: 1.4%
Negative rate (Blood cells) [1, 32]: 98.9%
Positive rate (Blood cells) [1, 32]: 1.1%
Negative rate (Blood cells) [1, 33]: 91.2%
Positive rate (Blood cells) [1, 33]: 8.8%

NCC(=O)CCC(=O)O [aminolevulinic acid, 5-amino-4-oxopentanoic acid]
Positive rate (Cancer cells) ([2]; Prostate cancer, hemolyzed, 0.3 mM, 60 min, 37° C., threshold value 265): 92.7%
Positive rate (PC3 cells) ([2]; hemolyzed, 0.1 mM, 37° C., 60 min): 44%
Positive rate (PC3 cells) ([2]; hemolyzed, 0.3 mM, 37° C., 60 min (concentration series)): 85%
Positive rate (PC3 cells) ([2]; hemolyzed, 1 mM, 37° C., 60 min): 88%
Positive rate (PC3 cells) ([2]; hemolyzed, 4° C., 0.3 mM, 60 min): 31%
Positive rate (PC3 cells) ([2]; hemolyzed, 23° C., 0.3 mM, 60 min): 54%
Positive rate (PC3 cells) ([2]; hemolyzed, 37° C., 0.3 mM, 60 min (temperature series)): 80%
Positive rate (PC3 cells) ([2]; hemolyzed, 30 min, 0.3 mM, 37° C.): 59%
Positive rate (PC3 cells) ([2]; hemolyzed, 60 min, 0.3 mM, 37° C. (time series)): 93%
Positive rate (PC3 cells) ([2]; hemolyzed, 120 min, 0.3 mM, 37° C.): 92%
Positive rate (PC3 cells) ([2]; without hemolyzing treatment, 0.1 mM, 37° C., 60 min): 54%
Positive rate (PC3 cells) ([2]; without hemolyzing treatment, 0.3 mM, 37° C., 60 min (concentration series)): 88%
Positive rate (PC3 cells) ([2]; without hemolyzing treatment, 1 mM, 37° C., 60 min): 94%
Positive rate (PC3 cells) ([2]; without hemolyzing treatment, 4° C., 0.3 mM, 60 min): 13%
Positive rate (PC3 cells) ([2]; without hemolyzing treatment, 23° C., 0.3 mM, 60 min): 18%
Positive rate (PC3 cells) ([2]; without hemolyzing treatment, 37° C., 0.3 mM, 60 min (temperature series)): 83%
Positive rate (PC3 cells) ([2]; without hemolyzing treatment, 30 min, 0.3 mM, 37° C.): 80%
Positive rate (PC3 cells) ([2]; without hemolyzing treatment, 60 min, 0.3 mM, 37° C. (time series)): 81%
Positive rate (PC3 cells) ([2]; without hemolyzing treatment, 120 min, 0.3 mM, 37° C.): 84%
